# Test results as given in paper PMC3752901 (Clinical cancer research : an official journal of the …, 2013).
# Columns and labels:
# [1] = target: ABCC3 (MRP3) (Homo sapiens, UniProt O15438); experiment: Uptake into inside-out Sf9 vesicles expressing ABCC3; type: in vitro ADME; settings: same experimental conditions as ABCC4 vesicles
# [2] = target: T1, Abcc4 (Mus musculus, UniProt E9Q236); experiment: Ex vivo mucosal-to-serosal transport in isolated stomach sacs; type: in vitro ADME; settings: Abcc4(−/−) vs wildtype mice
# T1 sequence (E9Q236 1-1325): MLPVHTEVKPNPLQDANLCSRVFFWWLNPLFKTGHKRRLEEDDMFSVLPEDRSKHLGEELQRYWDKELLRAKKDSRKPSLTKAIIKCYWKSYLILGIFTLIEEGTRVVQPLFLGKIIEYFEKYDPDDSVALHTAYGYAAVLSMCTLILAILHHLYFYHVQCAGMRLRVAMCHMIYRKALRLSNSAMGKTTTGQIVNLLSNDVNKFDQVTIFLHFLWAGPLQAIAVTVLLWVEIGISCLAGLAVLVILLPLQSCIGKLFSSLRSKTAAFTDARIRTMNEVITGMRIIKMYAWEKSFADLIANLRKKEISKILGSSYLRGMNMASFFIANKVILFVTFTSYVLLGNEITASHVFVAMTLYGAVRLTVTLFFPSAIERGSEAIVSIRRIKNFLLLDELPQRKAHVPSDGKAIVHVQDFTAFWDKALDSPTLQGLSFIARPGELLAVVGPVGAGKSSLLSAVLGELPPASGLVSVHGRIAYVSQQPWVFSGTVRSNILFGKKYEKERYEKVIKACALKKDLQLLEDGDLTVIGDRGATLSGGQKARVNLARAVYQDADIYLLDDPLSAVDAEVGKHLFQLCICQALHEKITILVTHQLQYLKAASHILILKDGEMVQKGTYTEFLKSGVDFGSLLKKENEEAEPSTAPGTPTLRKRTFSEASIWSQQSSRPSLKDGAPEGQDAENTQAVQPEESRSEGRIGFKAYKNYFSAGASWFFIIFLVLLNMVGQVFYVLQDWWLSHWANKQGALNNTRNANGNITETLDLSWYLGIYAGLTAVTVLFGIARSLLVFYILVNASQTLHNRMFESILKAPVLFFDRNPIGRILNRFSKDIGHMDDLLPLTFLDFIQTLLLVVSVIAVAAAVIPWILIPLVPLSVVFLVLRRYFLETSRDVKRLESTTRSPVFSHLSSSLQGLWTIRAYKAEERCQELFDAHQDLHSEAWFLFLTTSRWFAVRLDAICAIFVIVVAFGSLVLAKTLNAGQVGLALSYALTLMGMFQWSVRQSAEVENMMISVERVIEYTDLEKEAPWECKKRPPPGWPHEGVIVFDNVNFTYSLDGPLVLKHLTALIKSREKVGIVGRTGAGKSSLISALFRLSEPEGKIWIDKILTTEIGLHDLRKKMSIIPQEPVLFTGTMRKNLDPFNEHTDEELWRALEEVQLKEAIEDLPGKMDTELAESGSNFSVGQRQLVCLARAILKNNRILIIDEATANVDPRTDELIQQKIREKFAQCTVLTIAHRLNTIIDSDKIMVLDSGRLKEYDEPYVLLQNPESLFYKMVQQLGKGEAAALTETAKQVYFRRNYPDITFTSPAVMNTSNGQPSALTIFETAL
# [3] = target: T2, human ABCC4 (Homo sapiens, UniProt O15439); settings: 5 min, 1 μM
# T2 sequence (O15439 1-1325): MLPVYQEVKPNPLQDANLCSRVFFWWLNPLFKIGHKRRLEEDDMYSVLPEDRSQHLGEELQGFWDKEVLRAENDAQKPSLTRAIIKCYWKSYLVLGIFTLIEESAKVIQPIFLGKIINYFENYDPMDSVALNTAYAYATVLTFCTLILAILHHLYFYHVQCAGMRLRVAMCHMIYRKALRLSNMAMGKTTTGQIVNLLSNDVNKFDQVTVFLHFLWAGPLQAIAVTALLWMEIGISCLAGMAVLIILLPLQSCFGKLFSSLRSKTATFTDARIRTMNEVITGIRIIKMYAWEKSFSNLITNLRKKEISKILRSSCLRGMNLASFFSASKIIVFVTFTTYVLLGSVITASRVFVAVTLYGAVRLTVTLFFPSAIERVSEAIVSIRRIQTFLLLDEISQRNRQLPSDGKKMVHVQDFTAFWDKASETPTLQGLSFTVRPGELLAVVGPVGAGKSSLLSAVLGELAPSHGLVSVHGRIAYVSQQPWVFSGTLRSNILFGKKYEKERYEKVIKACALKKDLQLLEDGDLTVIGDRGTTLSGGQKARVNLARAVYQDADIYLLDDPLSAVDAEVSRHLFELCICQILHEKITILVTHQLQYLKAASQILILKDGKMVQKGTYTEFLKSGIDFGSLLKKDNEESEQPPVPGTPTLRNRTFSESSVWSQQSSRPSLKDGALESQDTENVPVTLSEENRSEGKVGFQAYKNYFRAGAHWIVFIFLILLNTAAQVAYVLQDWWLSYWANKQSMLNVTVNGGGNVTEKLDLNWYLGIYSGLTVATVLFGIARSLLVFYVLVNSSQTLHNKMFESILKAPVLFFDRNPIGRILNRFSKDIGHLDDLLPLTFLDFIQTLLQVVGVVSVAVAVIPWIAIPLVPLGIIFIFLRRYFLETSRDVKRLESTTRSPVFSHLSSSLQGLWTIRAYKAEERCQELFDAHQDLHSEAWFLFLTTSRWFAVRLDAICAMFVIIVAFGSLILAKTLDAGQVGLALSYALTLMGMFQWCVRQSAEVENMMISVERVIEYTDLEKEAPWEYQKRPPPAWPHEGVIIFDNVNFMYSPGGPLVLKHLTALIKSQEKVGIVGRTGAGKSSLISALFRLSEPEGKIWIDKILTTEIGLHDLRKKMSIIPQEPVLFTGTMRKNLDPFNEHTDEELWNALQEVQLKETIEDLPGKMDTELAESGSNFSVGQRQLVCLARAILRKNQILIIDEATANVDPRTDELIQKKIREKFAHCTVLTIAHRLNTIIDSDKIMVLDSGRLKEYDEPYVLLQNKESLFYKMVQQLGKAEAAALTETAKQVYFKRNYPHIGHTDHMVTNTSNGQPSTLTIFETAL
# Sequence of ABCC3 (MRP3) (O15438 whole entry): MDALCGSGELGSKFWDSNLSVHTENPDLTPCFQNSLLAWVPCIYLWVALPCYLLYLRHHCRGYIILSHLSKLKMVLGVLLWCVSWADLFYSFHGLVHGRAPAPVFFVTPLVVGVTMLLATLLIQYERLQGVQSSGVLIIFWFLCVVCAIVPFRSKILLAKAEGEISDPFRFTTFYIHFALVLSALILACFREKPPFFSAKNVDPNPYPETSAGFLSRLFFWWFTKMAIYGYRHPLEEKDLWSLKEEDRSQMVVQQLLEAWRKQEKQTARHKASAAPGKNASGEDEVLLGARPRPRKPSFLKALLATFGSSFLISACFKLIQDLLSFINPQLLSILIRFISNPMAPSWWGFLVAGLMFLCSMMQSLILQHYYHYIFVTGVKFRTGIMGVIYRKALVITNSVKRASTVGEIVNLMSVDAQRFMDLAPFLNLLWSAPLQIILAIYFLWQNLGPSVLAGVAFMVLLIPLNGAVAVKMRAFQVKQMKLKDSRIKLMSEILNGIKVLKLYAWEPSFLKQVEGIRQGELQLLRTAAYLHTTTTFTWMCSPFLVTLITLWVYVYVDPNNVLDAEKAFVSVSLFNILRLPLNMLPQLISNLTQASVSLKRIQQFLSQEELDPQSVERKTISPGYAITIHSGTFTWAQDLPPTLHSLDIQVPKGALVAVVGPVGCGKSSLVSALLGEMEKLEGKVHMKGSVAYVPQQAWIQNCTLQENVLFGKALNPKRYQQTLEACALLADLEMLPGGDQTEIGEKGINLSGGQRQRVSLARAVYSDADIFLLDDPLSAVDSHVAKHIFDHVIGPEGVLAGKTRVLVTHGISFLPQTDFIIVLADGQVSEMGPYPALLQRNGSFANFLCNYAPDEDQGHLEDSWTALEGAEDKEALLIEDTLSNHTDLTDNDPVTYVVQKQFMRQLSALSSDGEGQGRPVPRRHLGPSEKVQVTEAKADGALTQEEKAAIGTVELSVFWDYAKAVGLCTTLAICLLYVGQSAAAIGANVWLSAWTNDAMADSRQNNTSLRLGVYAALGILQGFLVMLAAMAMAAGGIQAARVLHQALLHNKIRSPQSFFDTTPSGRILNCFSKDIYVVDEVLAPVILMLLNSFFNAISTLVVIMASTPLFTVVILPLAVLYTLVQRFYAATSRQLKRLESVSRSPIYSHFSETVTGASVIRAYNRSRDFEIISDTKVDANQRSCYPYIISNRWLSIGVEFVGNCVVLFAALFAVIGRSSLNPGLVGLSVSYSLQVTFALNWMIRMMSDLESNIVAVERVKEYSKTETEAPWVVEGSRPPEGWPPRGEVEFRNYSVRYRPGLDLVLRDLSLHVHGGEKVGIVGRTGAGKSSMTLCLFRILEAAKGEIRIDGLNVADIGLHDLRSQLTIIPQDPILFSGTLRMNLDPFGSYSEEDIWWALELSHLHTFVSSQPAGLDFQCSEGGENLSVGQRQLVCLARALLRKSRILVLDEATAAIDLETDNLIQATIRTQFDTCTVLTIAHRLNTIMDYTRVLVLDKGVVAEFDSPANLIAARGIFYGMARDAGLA
structure (smiles),measurement,setting,value
"Cc1nc(Nc2ncc(C(=O)Nc3c(C)cccc3Cl)s2)cc(N2CCN(CCO)CC2)n1 [dasatinib, Dasatinib]",accumulation in ABCC3 vesicles compared to control,[1],1.3 fold
same,reduction of drug transport to the serosal side with Abcc4-deficiency,[2],up to 3.9 fold
same,accumulation in ABCC4-overexpressing vesicles compared to control vesicles,[3],3.0 fold
